In the supplement of paper PMC10307832:

Experiments:
Assay in all cases: relative viability (nuclei count vs DMSO), 5 days (fraction); higher = more cells survive
[1] = compound: CN1C=C(C2=CC=CC=C21)/C=C\3/C4=C(C=CC=N4)NC3=O + O=C(CCCCCCC(=O)Nc1ccccc1)NO [Vorinostat] (partner 1 µM)
Method in brief: (§1)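 Dosing by pin tool came one day after lung cancer cell lines were seeded in 1536-well plates, using either one drug or a fixed anchor-drug dose plus five library-drug doses (not always all listed) in √10 steps. After 5 days, nuclei were counted on 4× images. Relative viability is treated-well nuclei count divided by vehicle-well nuclei count, and values are medians of duplicate plates.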

[2] = compound: CN1C=C(C2=CC=CC=C21)/C=C\3/C4=C(C=CC=N4)NC3=O + Nc1nc2[nH]cc(CCc3ccc(C(=O)N[C@@H](CCC(=O)O)C(=O)O)cc3)c2c(=O)[nH]1 [Pemetrexed] (partner 0.2 µM)
Method in brief: as §1

Trametinib + Alpelisib = compound: CC(=O)Nc1cccc(-n2c(=O)n(C3CC3)c(=O)c3c(Nc4ccc(I)cc4F)n(C)c(=O)c(C)c32)c1 [Trametinib] + Cc1nc(NC(=O)N2CCC[C@H]2C(N)=O)sc1-c1ccnc(C(C)(C)C(F)(F)F)c1 [Alpelisib] (partner 2 µM)
Method in brief: as §1

Trametinib + Bortezomib = compound: CC(=O)Nc1cccc(-n2c(=O)n(C3CC3)c(=O)c3c(Nc4ccc(I)cc4F)n(C)c(=O)c(C)c32)c1 [Trametinib] + CC(C)C[C@H](NC(=O)[C@H](Cc1ccccc1)NC(=O)c1cnccn1)B(O)O [Bortezomib] (partner 0.002 µM)
Method in brief: as §1

Cell Line	relative viability ([1]; first compound 0.02 µM)	relative viability ([1]; first compound 0.06325 µM)	relative viability ([1]; first compound 0.6325 µM)	relative viability ([1]; first compound 2 µM)	relative viability ([2]; first compound 0.02 µM)	relative viability ([2]; first compound 0.06325 µM)	relative viability ([2]; first compound 0.6325 µM)	relative viability ([2]; first compound 2 µM)	relative viability (Trametinib + Alpelisib; first compound 0.0025 µM)	relative viability (Trametinib + Alpelisib; first compound 0.007906 µM)	relative viability (Trametinib + Alpelisib; first compound 0.025 µM)	relative viability (Trametinib + Alpelisib; first compound 0.07906 µM)	relative viability (Trametinib + Alpelisib; first compound 0.25 µM)	relative viability (Trametinib + Bortezomib; first compound 0.0025 µM)	relative viability (Trametinib + Bortezomib; first compound 0.007906 µM)	relative viability (Trametinib + Bortezomib; first compound 0.025 µM)	relative viability (Trametinib + Bortezomib; first compound 0.07906 µM)	relative viability (Trametinib + Bortezomib; first compound 0.25 µM)	relative viability ([1]; first compound 0.2 µM)	relative viability ([2]; first compound 0.2 µM)
NCI-H2023	0.697	0.562	0.56	0.502	0.274	0.171	0.25	0.2	0.38	0.486	0.315	0.352	0.288	0.957	0.791	0.582	0.806	0.212		
HOP-62	0.565	0.543	0.576	0.547	0.285	0.299	0.357	0.366	0.813	0.984	0.525	0.377	0.166	0.776	0.956	0.425	0.439	0.186		
H3255	1.03		0.749	0.774	0.578	0.549	0.615	0.54	0.684	0.566	0.503	0.41	0.317	0.814	0.769	0.597	0.42	0.344	0.876	0.493
NCI-H1734	0.73	0.712	0.796	0.747	0.348	0.4	0.425	0.418	0.627	0.712		0.631	0.444	0.901	0.987		0.734	0.349		
EKVX	0.537	0.627	0.631	0.638	0.371		0.354	0.352	0.832	0.638	0.629	0.444	0.343	0.797	0.628	0.6	0.373	0.331	0.641	
EPLC-272H	0.486	0.379		0.404	0.3	0.274		0.369	0.721	0.539	0.438	0.438	0.346	1.02	0.841	0.516	0.737	0.157	0.465	0.298
CAL-12T	0.652	0.675	0.873	0.679	1.1	1.13	1.34	1.34	1.14	0.79	0.452	0.45	0.34	0.784	0.734	0.645	1.43	0.454	0.703	1.21
NCI-H322M	0.855	0.821	0.904	0.828	0.606	0.575	0.673	0.641	0.78	0.59	0.555	0.455	0.316	1.29	1.14	0.879	1.03	0.717	0.712	0.598
SW 1573	0.73	0.656	0.8	0.882	0.785	0.806	0.93	0.906	0.629	0.619	0.564	0.457	0.43	0.806	0.514	0.888	0.743	0.417	0.787	0.788
NCI-H2405	1.16	0.913	0.98	0.73	1	0.955	1.09	1.01	0.599	0.42	0.339	0.379	0.315	0.999	0.909	0.657	0.597	0.508	0.754	0.828
LCLC-103H	0.819	0.755	0.853	0.766	0.455	0.455	0.482	0.462	0.974	0.875	0.665	0.81	0.624	1.16	0.977	0.887	0.821	0.626	0.749	0.483
HCC-44	1.03	1.09	1.12	1.02	0.58	0.613	0.648	0.636	0.774	0.618	0.614	0.528	0.187	0.926	0.905	0.946	0.816	0.585	1.1	0.664
RERF-LC-KJ	0.787	0.668	0.604	0.598	0.436	0.482	0.475	0.471	0.775	0.759	0.645	0.657	0.472	0.91	1.02	0.926	0.877	0.661	0.72	0.493
NCI-H1975	0.775	0.745	0.725	0.668	0.265	0.28	0.283	0.264	0.547	0.415	0.301	0.223	0.268	0.303	0.224	0.206	0.173	0.169	0.708	0.3
LCLC-97TM1		0.621	0.766	0.77		0.177	0.21	0.186	0.216	0.199	0.146	0.183	0.11	0.616	0.482	0.128	0.0773	0.0973	0.467	0.18
NCI-H520	0.797	0.482	0.718	0.722	0.67	0.53	0.672	0.732	0.768	0.887	0.81	0.818	0.693	0.612	0.485	0.444	0.44	0.126	0.661	0.698
A-427	0.89	0.845	0.901	0.813	0.981	0.973	0.94	0.983	0.91	1.02	0.437	0.607	0.269	1.1	1.05	0.735	0.763	0.601		
